# Measurements taken from EP2208725A1, “Novel specific inhibitors of ubiquitin specific protease 7, the pharmaceutical compositions thereof and their therapeutic applications” (Hybrigenics S.A., priority 2009, dated 2010).
# Molecular target: T1, UCH-L3 (Homo sapiens, UniProt P15374)
# T1 sequence (P15374 1-230): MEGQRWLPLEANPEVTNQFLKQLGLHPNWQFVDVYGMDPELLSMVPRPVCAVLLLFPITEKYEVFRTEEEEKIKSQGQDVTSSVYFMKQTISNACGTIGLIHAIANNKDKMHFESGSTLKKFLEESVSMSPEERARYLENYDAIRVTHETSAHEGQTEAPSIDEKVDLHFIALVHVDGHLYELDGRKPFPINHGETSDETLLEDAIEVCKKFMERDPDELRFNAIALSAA
# Assay: UCH-L3 activity assay (Ub-AMC)
# Type: biochemical
# Details: 400 nM Ub-AMC, 13 pM enzyme; compounds tested from 200 µM to 91 nM; unit inferred; read-out: Inhibition of cysteine protease activities: Uch-L3
# Protocol: UCH-L3 was diluted in USP buffer (50 mM Tris HCl; 0.5 mM EDTA; 5 mM DTT; 0.01% Triton X-100; Bovine Serum Albumin 0.05 mg.ml^-1 pH7.6). Compounds stocks (100 mM) were stored at -20°C in DMSO. Compounds were tested at different concentrations: from 200 µM to 91 nM. Reactions were performed as duplicates in Black LJL 96 well plates (HE microplates; Molecular Devices; 20 µl final reaction volume). The substrate concentration for UCH-L3 was 400 nM Ub-AMC (Boston Biochem). The concentration of the enzyme (UCH-L3) in specificity assays was 13 pM. The concentrations were determined in order to perform specificity assays under initial velocities at fixed substrate concentration. Compounds were pre-incubated with enzymes for 30 minutes at 25°C. Reactions were initiated by addition of substrate to the plates containing the enzymes (+/- compounds) diluted in assay buffer. Reactions were incubated for 60 minutes at 37°C. Reactions were stopped by adding acetic acid (100 mM final). Readings were performed on a Pherastar Fluorescent Reader (BMG). λ Emission 380 nm; λ Excitation = 460 nm. Data (mean values +/- standard deviation) were analyzed as % of control (no compound) and plotted as percentage versus the Log of the compound concentration using GraphPad (Prism). Data were fitted to a sigmoidal model (variable slope).
row,SMILES,IC50 [µM]
1,"CC(=O)C1=C(O)C(=O)N(CCc2ccc(Cl)cc2)C1c1ccc(Br)cc1 (stereo not shown) [Example 25, 4-acetyl-5-(4-bromo-phenyl)-1-[2-(4-chloro-phenyl)-ethyl]-3-hydroxy-1,5-dihydro-pyrrol-2-one]",> 200
2,"CC(=O)C1=C(O)C(=O)N(CCc2ccc(Br)cc2)C1c1ccc(Br)cc1 (stereo not shown) [Example 26, 4-acetyl-5-(4-bromo-phenyl)-1-[2-(4-bromo-phenyl)-ethyl]-3-hydroxy-1,5-dihydro-pyrrol-2-one]",> 200
3,"CC(=O)C1=C(O)C(=O)N(CCc2ccc(Cl)c(Cl)c2)C1c1ccc(Br)cc1 (stereo not shown) [Example 28, 4-acetyl-5-(4-bromo-phenyl)-1-[2-(3,4-dichloro-phenyl)-ethyl]-3-hydroxy-1,5-dihydro-pyrrol-2-one]",> 200
4,"COc1cccc(CCN2C(=O)C(O)=C(C(C)=O)C2c2ccc(Br)cc2)c1 (stereo not shown) [Example 30, 4-acetyl-5-(4-bromo-phenyl)-3-hydroxy-1-[2-(3-methoxyphenyl)-ethyl]-1,5-dihydro-pyrrol-2-one]",> 200
5,"COc1ccc(CCN2C(=O)C(O)=C(C(C)=O)C2c2ccc(Br)cc2)cc1 (stereo not shown) [Example 32, 4-acetyl-5-(4-bromo-phenyl)-3-hydroxy-1-[2-(4-methoxyphenyl)-ethyl]-1,5-dihydro-pyrrol-2-one]",> 200
6,"CC(=O)C1=C(O)C(=O)N(CCc2ccc(F)cc2)C1c1ccc(Br)cc1 (stereo not shown) [Example 33, 4-acetyl-5-(4-bromo-phenyl)-3-hydroxy-1-[2-(4-fluorophenyl)-ethyl]-1,5-dihydro-pyrrol-2-one]",> 200
7,"CCOc1ccc(CCN2C(=O)C(O)=C(C(C)=O)C2c2ccc(Br)cc2)cc1 (stereo not shown) [Example 34, 4-acetyl-5-(4-bromo-phenyl)-3-hydroxy-1-[2-(4-ethoxy-phenyl)-ethyl]-1,5-dihydro-pyrrol-2-one]",> 200
8,"CC(=O)C1=C(O)C(=O)N(CCc2ccccc2)C1c1ccc2c(c1)OCO2 (stereo not shown) [Example 37, 4-acetyl-5-benzo[1,3]dioxol-5-yl-3-hydroxy-1-phenethyl-1,5-dihydro-pyrrol-2-one]",> 200
9,"CC(=O)C1=C(O)C(=O)N(CCc2ccccc2)C1c1ccc(Br)c(Br)c1 (stereo not shown) [Example 41, 4-acetyl-5-(3,4-dibromo-phenyl)-3-hydroxy-1-phenethyl-1,5-dihydro-pyrrol-2-one]",> 200
10,"CC(=O)C1=C(O)C(=O)N(CCc2ccccc2)C1c1cccnc1Cl (stereo not shown) [Example 42, 4-acetyl-5-(2-chloro-pyridin-3-yl)-3-hydroxy-1-phenethyl-1,5-dihydro-pyrrol-2-one]",> 200
11,"CC(=O)C1=C(O)C(=O)N(CCc2ccc(Br)cc2)C1c1ccc(Cl)cc1 (stereo not shown) [Example 45, 4-Acetyl-5-(4-chlorophenyl)-1-[2-(4-bromophenyl)-ethyl]-3-hydroxy-1,5-dihydro-pyrrol-2-one]",> 200
12,"CC(=O)C1=C(O)C(=O)N(CCc2ccc(Cl)cc2)C1c1ccc(Cl)cc1 (stereo not shown) [Example 46, 4-Acetyl-5-(4-chlorophenyl)-1-[2-(4-chlorophenyl)-ethyl]-3-hydroxy-1,5-dihydro-pyrrol-2-one]",> 200
13,"CC(=O)C1=C(O)C(=O)N(CCc2ccc(Cl)cc2Cl)C1c1ccc(Br)cc1 (stereo not shown) [Example 47, 4-Acetyl-5-(4-bromophenyl)-1-[2-(2,4-dichlorophenyl)-ethyl]-3-hydroxy-1,5-dihydro-pyrrol-2-one]",> 200
